Reference: patent US20240252693A1, “FOLATE RECEPTOR-TARGETED RADIOTHERAPEUTIC AGENTS AND THEIR USE” (Novartis AG, priority 2021, published 2024)
Where “and” joins values, the source holds several entries; their conditions need not be identical. Equal entries are not always repeated. *1 amine or outer side, *2 acyl side, *3 side chain or, on linkers, in order; H or OH if unused. Where a SMILES comes first, the peptide text is derived from it. [ ]: non-standard residue; d: D form. The star is where a group is joined. NH(1-deoxy-D-glucityl) = OC[C@@H](O)[C@@H](O)[C@H](O)[C@@H](O)CN*; DOTA = O=C(O)CN1CCN(CC(=O)O)CCN(CC(=O)*)CCN(CC(=O)O)CC1; Pteroyl = Nc1nc2ncc(CNc3ccc(C(=O)*)cc3)nc2c(=O)[nH]1; γGlu = O=C(O)[C@H](CCC(=O)[*:2])N[*:1]; βAsp = O=C(O)[C@H](CC(=O)[*:2])N[*:1]; Dap = NC[C@H](N)C(=O)O

test system: FR-positive M109 tumor; experiment: In vivo biodistribution in mice bearing M109 tumors; settings: 111In chelate, 100 nmol/kg
Text: Four- to eight-week-old female nu/nu mice or NSG mice (Harlan Sprague-Dawley, Inc.) were maintained on a standard 12-h light-dark cycle and fed ad libitum with Folate deficient purified rodent diet (TestDiet #AIN-93G) for the duration of the experiment. FR-positive M109 or FR-negative HT29 tumor cells were inoculated in the subcutis dorsal medial area of mice. The biodistribution studies were typically performed when tumors were approximately 400-800 mm^3 in volume. Mice were divided into groups of three, and freshly prepared test articles and competitors were injected through the lateral tail vein in a volume of 100 μL/10 g of PBS. Four h to six days post radioactive-agent dose administration, mice were euthanized and organs (blood, heart, lungs, liver, spleen, and kidneys, intestine, stomach, muscle, brain and tumor) were collected, weighed and placed inside counting vials. Each tissue sample was counted for the activities of radioelement using a gamma-counter. Samples of the injectate were used as decay correction standards. Final bar graphs are expressed as % injected dose per gram of tissue or tumor to kidney ratio, or % tumor to (kidneys+liver+spleen) ratio.

Row | SMILES | T/Kid | T/Liv | T/spl | T^2/kid
1 | Nc1nc2ncc(CNc3ccc(C(=O)N[C@@H](CC(=O)N[C@@H](CCC(=O)NC[C@H](O)[C@@H](O)[C@H](O)[C@H](O)CO)C(=O)N[C@@H](CCC(=O)NC[C@H](O)[C@@H](O)[C@H](O)[C@H](O)CO)C(=O)N[C@@H](CCC(=O)NC[C@H](O)[C@@H](O)[C@H](O)[C@H](O)CO)C(=O)N[C@@H](CNC(=O)CN4CCN(CC(=O)O)CCN(CC(=O)O)CCN(CC(=O)O)CC4)C(=O)O)C(=O)O)cc3)nc2c(=O)[nH]1 [Compound 11] ({Pteroyl-βAsp}-E(NH(1-deoxy-D-glucityl))E(NH(1-deoxy-D-glucityl))E(NH(1-deoxy-D-glucityl))[Dap](DOTA)-OH) | 0.19 +/− 0.01 | 5.7 +/− 1.5 | 28.0 +/− 31^ | 1.0 +/− 0.14
2 | Nc1nc2ncc(CNc3ccc(C(=O)N[C@@H](CCC(=O)N[C@@H](CCC(=O)NC[C@H](O)[C@@H](O)[C@H](O)[C@H](O)CO)C(=O)N[C@@H](CCC(=O)NC[C@H](O)[C@@H](O)[C@H](O)[C@H](O)CO)C(=O)N[C@@H](CCC(=O)NC[C@H](O)[C@@H](O)[C@H](O)[C@H](O)CO)C(=O)N[C@@H](CNC(=O)CN4CCN(CC(=O)O)CCN(CC(=O)O)CCN(CC(=O)O)CC4)C(=O)O)C(=O)O)cc3)nc2c(=O)[nH]1 [Compound 13] ({Pteroyl-γGlu}-E(NH(1-deoxy-D-glucityl))E(NH(1-deoxy-D-glucityl))E(NH(1-deoxy-D-glucityl))[Dap](DOTA)-OH) | 0.22 +/− 0.06 | 6.4 +/− 1.5 | 31.9 +/− 7.6 | 1.7 +/− 1.1
3 | Nc1nc(O)c2nc(CNc3ccc(C(=O)N[C@@H](CCC(=O)NCCNC(=O)CCC(C(=O)O)N4CCN(CC(=O)O)CCN(CC(=O)O)CCN(CC(=O)O)CC4)C(=O)O)cc3)cnc2n1 (some centres unmarked) [Compound 28] | 0.098 +/− 0.003 | 1.2 +/− 0.1 | 2.1 +/− 0.3 | 0.03 +/− 0.001

same assay, conditions: 177Lu chelate, 100 nmol/kg

Row | SMILES | T/Kid | T/spl | T^2/kid | T/Liv
4 | Nc1nc2ncc(CNc3ccc(C(=O)N[C@@H](CNC(=O)CCC(C(=O)O)N4CCN(CC(=O)O)CCN(CC(=O)O)CCN(CC(=O)O)CC4)C(=O)O)cc3)nc2c(=O)[nH]1 (some centres unmarked) [Compound 5] | 0.22 +/− 0.08 and 0.16 +/− 0.01 and 0.25 +/− 0.07 | 25.3 +/− 11.4 and 14.6 +/− 3.0 and 24.4 +/− 8.8 | 1.6 +/− 1.0 and 1.1 +/− 0.3 and 2.0 +/− 1.2 | 
5 | Nc1nc2ncc(CNc3ccc(C(=O)N[C@@H](CNC(=O)C[C@H](NC(=O)CN4CCN(CC(=O)O)CCN(CC(=O)O)CCN(CC(=O)O)CC4)C(=O)O)C(=O)O)cc3)nc2c(=O)[nH]1 [Compound 20] | 0.21 +/− 0.01 | 16.4 +/− 1.9 | 1.5 +/− 0.3 | 4.6 +/− 2.1

same assay, conditions: 177Lu chelate, 200 nmol/kg

Row | SMILES | T/Kid | T/Liv | T/spl | T^2/kid
6 | Nc1nc2ncc(CNc3ccc(C(=O)N[C@@H](CNC(=O)CNC(=O)CN4CCN(CC(=O)O)CCN(CC(=O)O)CCN(CC(=O)O)CC4)C(=O)O)cc3)nc2c(=O)[nH]1 [Compound 68, Pte-Dap(Gly-DOTA)-OH] | 0.29 +/− 0.08 | 10.1 +/− 3.2 | 55.6 +/− 17.1 | 1.37 +/− 0.73
7 | CSCC[C@H](NC(=O)CN1CCN(CC(=O)O)CCN(CC(=O)O)CCN(CC(=O)O)CC1)C(=O)N[C@H](C(=O)N[C@@H](CCCCNC(=O)C[C@H](NC(=O)c1ccc(NCc2cnc3nc(N)[nH]c(=O)c3n2)cc1)C(=O)O)C(=O)O)C(C)C [Compound 54, Pte-Asp(DOTA-Met-Val-ε-Lys-OH)—OH] | 0.23 +/− 0.03 | 9.0 +/− 0.9 | 56.4 +/− 6.2 | 0.76 +/− 0.12

same assay, conditions: 177Lu chelate, 300 nmol/kg

Row | SMILES | T/Kid | T/Liv | T/spl | T^2/kid
8 | CSCC[C@H](NC(=S)Nc1ccc(CC2CN(CC(=O)O)CCN(CC(=O)O)CCN(CC(=O)O)CCN2CC(=O)O)cc1)C(=O)N[C@H](C(=O)N[C@@H](CCCCN1C(=O)CC(SC[C@@H](NC(=O)[C@H](CC(=O)O)NC(=O)[C@H](CC(=O)O)NC(=O)[C@H](CCCNC(=N)N)NC(=O)[C@H](CC(=O)O)NC(=O)CC[C@H](NC(=O)c2ccc(NCc3cnc4nc(N)[nH]c(=O)c4n3)cc2)C(=O)O)C(=O)O)C1=O)C(=O)O)C(C)C (stereo partly drawn) [Compound 58, DOTA-Bn-NHC(S)NH-Met-Val-Lys(Mal-S-Cys-Asp-Asp-Arg-Asp-Folate)-OH] | 0.59 +/− 0.12 | 28.8 +/− 2.9 | 83.1 +/− 17.3 | 0.59 +/− 0.16
9 | Nc1nc2ncc(CNc3ccc(C(=O)N[C@@H](CCCCNC(=O)COc4ccc(C[C@H](NC(=O)COc5ccc(C[C@H](NC(=O)CN6CCN(CC(=O)O)CCN(CC(=O)O)CCN(CC(=O)O)CC6)C(=O)O)cc5)C(=O)O)cc4)C(=O)O)cc3)nc2c(=O)[nH]1 [Compound 39, Pte-Lys(DOTA-(Tyr(O-carbonylmethyl)-OH)2)—OH] | 0.57 +/− 0.22 | 17.1 +/− 6.4 | 83.8 +/− 29.7 | 1.68 +/− 0.59
10 | Nc1nc2ncc(CNc3ccc(C(=O)N[C@@H](Cc4ccc(OCC(=O)NCCNC(=O)CN5CCN(CC(=O)O)CCN(CC(=O)O)CCN(CC(=O)O)CC5)cc4)C(=O)O)cc3)nc2c(=O)[nH]1 [Compound 61, Pte-Tyr(OCH2CO-EDA-DOTA)-OH] | 0.27 +/− 0.03 | 8.6 +/− 3.9 | 40.3 +/− 18.7 | 1.05 +/− 0.28
11 | Nc1nc2ncc(CNc3ccc(C(=O)N[C@@H](CCCCNC(=O)C[C@H](NC(=O)[C@H](Cc4ccc5ccccc5c4)NC(=O)[C@H](Cc4ccc5ccccc5c4)NC(=O)CN4CCN(CC(=O)O)CCN(CC(=O)O)CCN(CC(=O)O)CC4)C(=O)O)C(=O)O)cc3)nc2c(=O)[nH]1 [Compound 42, Pte-Lys(β-Asp-2-Nal-2-Nal-DOTA)-OH] | 0.49 +/− 0.16 | 17.3 +/− 4.9 | 84.4 +/− 10.4 | 1.64 +/− 0.62
12 | Nc1nc2ncc(CNc3ccc(C(=O)N[C@@H](CCCCNC(=O)C[C@H](NC(=O)[C@H](Cc4ccc(Br)cc4)NC(=O)CNC(=O)CN4CCN(CC(=O)O)CCN(CC(=O)O)CCN(CC(=O)O)CC4)C(=O)O)C(=O)O)cc3)nc2c(=O)[nH]1 [Compound 43, Pte-Lys(β-Asp-4-Br-Phe-Gly-DOTA)-OH] | 0.58 +/− 0.10 | 13.0 +/− 3.7 | 70.2 +/− 6.7 | 1.57 +/− 0.53
13 | Nc1nc2ncc(CNc3ccc(C(=O)N[C@@H](CCCCNC(=O)COc4ccc(C[C@H](NC(=O)CN5CCN(CC(=O)O)CCN(CC(=O)O)CCN(CC(=O)O)CC5)C(=O)O)cc4)C(=O)O)cc3)nc2c(=O)[nH]1 [Compound 38, Pte-Lys(DOTA-Tyr(O-carbonylmethyl)-OH)—OH] | 0.46 +/− 0.03 | 10.5 +/− 2.9 | 69.9 +/− 7.9 | 1.28 +/− 0.11
14 | Nc1nc2ncc(CNc3ccc(C(=O)N[C@@H](Cc4ccc(OCCNC(=O)CN5CCN(CC(=O)O)CCN(CC(=O)O)CCN(CC(=O)O)CC5)cc4)C(=O)O)cc3)nc2c(=O)[nH]1 [Compound 64, Pte-Tyr(OCH2CH2—NH-DOTA)-OH] | 0.38 +/− 0.07 | 14.6 +/− 2.0 | 85.5 +/− 7.7 | 1.48 +/− 0.51
15 | Nc1nc2ncc(CNc3ccc(C(=O)N[C@@H](CCCCNC(=O)[C@H](Cc4ccc5ccccc5c4)NC(=O)[C@H]4CC[C@H](CNC(=O)CN5CCN(CC(=O)O)CCN(CC(=O)O)CCN(CC(=O)O)CC5)CC4)C(=O)O)cc3)nc2c(=O)[nH]1 [Compound 23] | 0.37 +/− 0.11 | 25.8 +/− 2.4 | 108 +/− 12.7 | 1.47 +/− 0.66

test system: KB tumor; experiment: In vivo biodistribution in mice bearing KB tumors; settings: 177Lu chelate, 200 nmol/kg

Row | SMILES | T/Kid | T/Liv | T/spl | T^2/kid
16 | Nc1nc2ncc(CNc3ccc(C(=O)NCCCC[C@H](NC(=O)CNC(=O)CN4CCN(CC(=O)O)CCN(CC(=O)O)CCN(CC(=O)O)CC4)C(=O)O)cc3)nc2c(=O)[nH]1 [Compound 45, DOTA-Gly-Lys(Pte)-OH] | 0.16 +/− 0.01 | 6.8 +/− 1.1 | 50.7 +/− 24.0 | 0.64 +/− 0.19
17 | Nc1nc2ncc(CNc3ccc(C(=O)N[C@@H](CC(=O)NCCCC[C@H](NC(=O)CNC(=O)CN4CCN(CC(=O)O)CCN(CC(=O)O)CCN(CC(=O)O)CC4)C(=O)O)C(=O)O)cc3)nc2c(=O)[nH]1 [Compound 51, Pte-Asp(DOTA-Gly-ε-Lys-OH)—OH] | 0.32 +/− 0.09 | 11.0 +/− 2.3 | 54.8 +/− 11.3 | 1.35 +/− 0.54
18 | Nc1nc2ncc(CNc3ccc(C(=O)NCCCC[C@H](NC(=O)CN4CCN(CC(=O)O)CCN(CC(=O)O)CCN(CC(=O)O)CC4)C(=O)O)cc3)nc2c(=O)[nH]1 [Compound 46, DOTA-Lys(Pte)-OH] | 0.19 +/− 0.03 | 6.3 +/− 1.9 | 66.9 +/− 30.8 | 0.84 +/− 0.32

same assay, conditions: 225Ac chelate, 30 nmol/kg

Row | SMILES | T/Kid | T/Liv | T/spl
19 | Nc1nc2ncc(CNc3ccc(C(=O)N[C@@H](CNC(=O)CCC(C(=O)O)N4CCN(CC(=O)O)CCN(CC(=O)O)CCN(CC(=O)O)CC4)C(=O)O)cc3)nc2c(=O)[nH]1 (some centres unmarked) [Compound 5] | 0.09 +/− 0.02 | 3.5 +/− 1.9 | 19.9 +/− 10.9
20 | Nc1nc2ncc(CNc3ccc(C(=O)N[C@@H](CCC(=O)NC[C@H](N)C(=O)N[C@@H](CC(=O)O)C(=O)N[C@@H](CSC4CC(=O)N(CCNC(=O)CN5CCN(CC(=O)O)CCN(CC(=O)O)CCN(CC(=O)O)CC5)C4=O)C(=O)O)C(=O)O)cc3)nc2c(=O)[nH]1 (some centres unmarked) [Compound 25] | 0.07 +/− 0.03 | 3.3 +/− 1.8 | 15.8 +/− 5.9
21 | Nc1nc2ncc(CNc3ccc(C(=O)N[C@@H](CCCCNC(=O)[C@H](Cc4ccc5ccccc5c4)NC(=O)[C@H]4CC[C@H](CNC(=O)CCC(C(=O)O)N5CCN(CC(=O)O)CCN(CC(=O)O)CCN(CC(=O)O)CC5)CC4)C(=O)O)cc3)nc2c(=O)[nH]1 (some centres unmarked) [Compound 26] | 0.08 +/− 0.02 | 3.3 +/− 1.1 | 20.4 +/− 5.6
22 | Nc1nc2ncc(CNc3ccc(C(=O)N[C@@H](CCCCNC(=O)[C@H](Cc4ccc5ccccc5c4)NC(=O)[C@H]4CC[C@H](CNC(=O)CN5CCN(CC(=O)O)CCN(CC(=O)O)CCN(CC(=O)O)CC5)CC4)C(=O)O)cc3)nc2c(=O)[nH]1 [Compound 23] | 0.08 +/− 0.03 | 1.8 +/− 0.7 | 10.1 +/− 4.7
